Three compounds from PMC3961306, “Comparison of the Cancer Gene Targeting and Biochemical Selectivities of All Targeted Kinase Inhibitors Approved for Clinical Use” (PLoS ONE, 2014) can be followed below.

Holding throughout (assay): Kinase profiling in a biochemical assay panel (mobility shift assays and ELISA), %-inhibition at 1 μM; selectivity entropy
Assay [1] deals with T1, panel of more than 300 wild-type and mutant kinases (313 kinase panel) (Homo sapiens, UniProt O94806).
T1 sequence (O94806 1-890): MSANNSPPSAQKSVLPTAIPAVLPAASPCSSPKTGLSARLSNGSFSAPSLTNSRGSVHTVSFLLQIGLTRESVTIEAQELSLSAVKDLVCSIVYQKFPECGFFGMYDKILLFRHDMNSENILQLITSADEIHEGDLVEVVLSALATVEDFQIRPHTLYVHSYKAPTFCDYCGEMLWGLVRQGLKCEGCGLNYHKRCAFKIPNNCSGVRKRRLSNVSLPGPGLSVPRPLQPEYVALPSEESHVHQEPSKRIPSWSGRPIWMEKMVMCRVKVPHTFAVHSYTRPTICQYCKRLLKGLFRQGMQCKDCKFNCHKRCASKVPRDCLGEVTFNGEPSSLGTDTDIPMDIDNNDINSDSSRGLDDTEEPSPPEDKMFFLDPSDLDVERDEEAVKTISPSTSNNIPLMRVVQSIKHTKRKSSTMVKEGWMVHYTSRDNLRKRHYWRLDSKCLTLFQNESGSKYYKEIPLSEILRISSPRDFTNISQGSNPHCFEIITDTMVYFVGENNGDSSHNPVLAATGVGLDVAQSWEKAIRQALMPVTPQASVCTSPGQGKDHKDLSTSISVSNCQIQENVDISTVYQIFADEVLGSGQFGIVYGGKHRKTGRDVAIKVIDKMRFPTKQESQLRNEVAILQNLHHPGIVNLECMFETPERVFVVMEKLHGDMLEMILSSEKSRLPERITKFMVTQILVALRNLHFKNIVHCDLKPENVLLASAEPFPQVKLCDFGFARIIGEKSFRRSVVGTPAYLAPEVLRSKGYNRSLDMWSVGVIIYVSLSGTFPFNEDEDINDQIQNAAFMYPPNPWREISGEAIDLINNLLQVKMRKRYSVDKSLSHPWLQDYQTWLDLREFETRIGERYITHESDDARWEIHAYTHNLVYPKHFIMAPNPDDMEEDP
The conditions noted are these: kinase PKD3; 1 μM.

Assay [2] has as its target panel of more than 300 wild-type and mutant kinases (313 kinase panel) (Homo sapiens, UniProt P07949). Conditions: kinase RET; 1 μM.
Assay [3] concerns the target panel of more than 300 wild-type and mutant kinases (313 kinase panel) (Homo sapiens, UniProt P51957). Conditions: kinase NEK4; 1 μM.
The target of assay [4] is T2, panel of more than 300 wild-type and mutant kinases (313 kinase panel) (Homo sapiens, UniProt Q06418).
T2 sequence (Q06418 41-890): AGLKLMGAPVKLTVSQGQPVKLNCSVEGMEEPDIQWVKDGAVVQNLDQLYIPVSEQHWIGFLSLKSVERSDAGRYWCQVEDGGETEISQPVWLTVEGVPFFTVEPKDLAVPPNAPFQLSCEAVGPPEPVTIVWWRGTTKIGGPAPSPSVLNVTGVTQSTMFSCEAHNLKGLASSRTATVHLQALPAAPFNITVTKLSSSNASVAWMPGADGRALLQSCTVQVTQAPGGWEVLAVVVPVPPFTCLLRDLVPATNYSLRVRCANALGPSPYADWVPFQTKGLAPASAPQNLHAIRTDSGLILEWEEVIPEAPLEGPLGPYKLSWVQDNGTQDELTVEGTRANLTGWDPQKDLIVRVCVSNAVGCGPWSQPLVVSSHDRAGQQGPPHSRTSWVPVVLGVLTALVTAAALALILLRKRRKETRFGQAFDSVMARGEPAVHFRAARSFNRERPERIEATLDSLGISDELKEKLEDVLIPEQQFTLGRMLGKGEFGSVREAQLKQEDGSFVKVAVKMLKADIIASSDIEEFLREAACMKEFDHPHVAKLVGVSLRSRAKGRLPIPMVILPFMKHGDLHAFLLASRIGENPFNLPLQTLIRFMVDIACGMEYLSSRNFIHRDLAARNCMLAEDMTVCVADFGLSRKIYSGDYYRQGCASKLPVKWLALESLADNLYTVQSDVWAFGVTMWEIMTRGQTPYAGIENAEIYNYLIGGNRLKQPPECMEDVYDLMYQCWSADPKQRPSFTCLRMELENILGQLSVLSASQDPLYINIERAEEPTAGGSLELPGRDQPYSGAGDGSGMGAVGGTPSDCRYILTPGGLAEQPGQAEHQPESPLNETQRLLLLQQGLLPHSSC
Conditions: kinase TYRO3; compound at 1 μM.

The target of assay [5] is panel of more than 300 wild-type and mutant kinases (313 kinase panel) (Homo sapiens, UniProt Q15759). The conditions noted are these: kinase p38β; 1 μM.
The target in assay [6] is T3, panel of more than 300 wild-type and mutant kinases (313 kinase panel) (Homo sapiens, UniProt Q92630).
T3 sequence (Q92630 1-601): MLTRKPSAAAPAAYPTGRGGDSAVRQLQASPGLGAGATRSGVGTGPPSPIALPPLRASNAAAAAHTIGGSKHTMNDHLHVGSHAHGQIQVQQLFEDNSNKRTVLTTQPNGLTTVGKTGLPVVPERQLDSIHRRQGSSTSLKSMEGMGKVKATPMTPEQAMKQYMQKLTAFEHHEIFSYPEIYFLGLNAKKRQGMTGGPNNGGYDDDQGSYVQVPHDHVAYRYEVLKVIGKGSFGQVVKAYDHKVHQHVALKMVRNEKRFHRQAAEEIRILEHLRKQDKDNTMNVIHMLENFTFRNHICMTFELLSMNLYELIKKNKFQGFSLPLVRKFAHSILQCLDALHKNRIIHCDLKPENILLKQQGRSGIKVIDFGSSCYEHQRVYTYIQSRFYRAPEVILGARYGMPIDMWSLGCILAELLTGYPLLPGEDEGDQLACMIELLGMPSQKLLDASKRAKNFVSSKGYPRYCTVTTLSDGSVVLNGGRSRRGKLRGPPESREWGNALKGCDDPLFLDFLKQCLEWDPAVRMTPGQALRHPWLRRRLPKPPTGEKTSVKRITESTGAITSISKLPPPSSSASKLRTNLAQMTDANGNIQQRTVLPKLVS
The conditions noted are these: kinase DYRK2; compound at 1 μM.

Molecules are shown by their SMILES.

Chain of panel of more than 300 wild-type and mutant kinases (313 kinase panel) (Homo sapiens, UniProt P07949) (P07949 29-1114, change not shown): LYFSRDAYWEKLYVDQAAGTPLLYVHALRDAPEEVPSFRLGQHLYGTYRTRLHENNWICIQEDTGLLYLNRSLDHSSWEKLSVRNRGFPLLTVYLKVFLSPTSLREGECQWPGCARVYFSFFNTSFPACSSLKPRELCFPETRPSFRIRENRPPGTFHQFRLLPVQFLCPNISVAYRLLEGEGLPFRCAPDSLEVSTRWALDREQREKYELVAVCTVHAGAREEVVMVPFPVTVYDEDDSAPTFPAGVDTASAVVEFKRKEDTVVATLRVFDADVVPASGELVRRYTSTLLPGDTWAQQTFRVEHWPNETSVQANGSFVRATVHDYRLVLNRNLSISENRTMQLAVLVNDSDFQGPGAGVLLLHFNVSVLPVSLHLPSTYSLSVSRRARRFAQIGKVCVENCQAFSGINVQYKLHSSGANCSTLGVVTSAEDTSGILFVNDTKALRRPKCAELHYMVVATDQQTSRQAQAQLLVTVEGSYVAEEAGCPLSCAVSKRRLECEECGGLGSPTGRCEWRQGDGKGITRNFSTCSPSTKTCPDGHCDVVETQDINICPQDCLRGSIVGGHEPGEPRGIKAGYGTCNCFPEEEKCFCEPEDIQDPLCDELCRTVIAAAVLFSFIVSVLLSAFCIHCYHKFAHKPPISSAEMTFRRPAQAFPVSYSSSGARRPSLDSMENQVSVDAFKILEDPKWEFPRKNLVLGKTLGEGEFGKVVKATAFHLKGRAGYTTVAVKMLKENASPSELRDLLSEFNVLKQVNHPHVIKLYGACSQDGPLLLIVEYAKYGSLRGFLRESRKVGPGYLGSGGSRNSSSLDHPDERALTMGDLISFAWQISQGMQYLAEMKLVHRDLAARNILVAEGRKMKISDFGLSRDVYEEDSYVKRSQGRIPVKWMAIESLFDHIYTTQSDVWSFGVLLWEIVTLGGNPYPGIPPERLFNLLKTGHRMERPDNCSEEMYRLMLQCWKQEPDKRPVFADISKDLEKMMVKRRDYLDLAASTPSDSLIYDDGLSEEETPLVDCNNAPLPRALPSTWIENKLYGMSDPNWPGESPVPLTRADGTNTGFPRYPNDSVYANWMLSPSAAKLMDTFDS
Chain of panel of more than 300 wild-type and mutant kinases (313 kinase panel) (Homo sapiens, UniProt P51957) (P51957 whole entry, change not shown): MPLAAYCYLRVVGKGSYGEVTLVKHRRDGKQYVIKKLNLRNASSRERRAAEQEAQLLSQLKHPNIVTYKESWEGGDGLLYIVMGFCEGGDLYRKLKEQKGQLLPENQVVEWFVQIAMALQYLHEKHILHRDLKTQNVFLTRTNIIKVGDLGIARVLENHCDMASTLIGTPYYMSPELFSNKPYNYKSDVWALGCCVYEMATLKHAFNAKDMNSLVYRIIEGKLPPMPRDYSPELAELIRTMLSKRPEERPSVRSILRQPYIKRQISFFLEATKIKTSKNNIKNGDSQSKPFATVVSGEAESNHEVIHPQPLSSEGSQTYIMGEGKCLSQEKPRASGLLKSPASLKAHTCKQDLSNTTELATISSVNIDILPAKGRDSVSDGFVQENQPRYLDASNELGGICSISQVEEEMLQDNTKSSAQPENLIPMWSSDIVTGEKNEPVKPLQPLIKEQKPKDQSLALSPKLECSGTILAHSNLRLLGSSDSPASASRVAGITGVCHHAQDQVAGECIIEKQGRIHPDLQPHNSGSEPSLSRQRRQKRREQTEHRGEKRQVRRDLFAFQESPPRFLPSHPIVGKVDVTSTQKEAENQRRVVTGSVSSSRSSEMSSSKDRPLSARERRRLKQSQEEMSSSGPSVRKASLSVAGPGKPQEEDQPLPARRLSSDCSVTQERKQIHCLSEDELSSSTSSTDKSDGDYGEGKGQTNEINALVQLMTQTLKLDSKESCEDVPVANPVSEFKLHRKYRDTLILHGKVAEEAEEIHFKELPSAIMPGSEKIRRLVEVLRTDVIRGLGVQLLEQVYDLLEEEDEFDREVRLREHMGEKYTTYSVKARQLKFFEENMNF

For the compound `CO[C@H]1C[C@@H]2CC[C@@H](C)[C@@](O)(O2)C(=O)C(=O)N2CCCC[C@H]2C(=O)O[C@H]([C@H](C)C[C@@H]2CC[C@@H](OC(=O)C(C)(CO)CO)[C@H](OC)C2)CC(=O)[C@H](C)/C=C(\C)[C@@H](O)[C@@H](OC)C(=O)[C@H](C)C[C@H](C)/C=C/C=C/C=C/1C` [temsirolimus], the “%-inhibition of PKD3” value in assay [1] is recorded as -10%. The “%-inhibition of RET” value in assay [2] is reported as -3%. In assay [3], the “%-inhibition of NEK4” value came out at 0.416%. The “%-inhibition of TYRO3” value in assay [4] is -1.34%. In addition, in assay [5], the “%-inhibition of p38β” value is -2%. The “%-inhibition of DYRK2” value in assay [6] is -3.63%.
With `CC(=O)Nc1cccc(-n2c(=O)n(C3CC3)c(=O)c3c(Nc4ccc(I)cc4F)n(C)c(=O)c(C)c32)c1` [trametinib], the “%-inhibition of PKD3” value in assay [1] was found to be 2.48%. For the same compound, the “%-inhibition of RET” value in assay [2] is reported as -8%. The “%-inhibition of NEK4” value in assay [3] is on record as 2%. Moreover, in assay [4], the “%-inhibition of TYRO3” value is reported as -2.65%. In addition, in assay [5], the “%-inhibition of p38β” value was found to be 2.31%. In addition, in assay [6], the “%-inhibition of DYRK2” value is listed as -0.0865%.
For the compound `CCCS(=O)(=O)Nc1ccc(F)c(C(=O)c2c[nH]c3ncc(-c4ccc(Cl)cc4)cc23)c1F` [vemurafenib], the “%-inhibition of PKD3” value in assay [1] is -4.7%. Moreover, the “%-inhibition of RET” value in assay [2] is on record as 32%. Moreover, in assay [3], the “%-inhibition of NEK4” value is listed as -0.416%. Also, the “%-inhibition of TYRO3” value in assay [4] amounted to 3.16%. Moreover, the “%-inhibition of p38β” value in assay [5] is 24%. The “%-inhibition of DYRK2” value in assay [6] came out at 1%.
